Our source for the melting point values is patent publication US20100029682A1, “NOVEL CHROMENE AND THIOCHROMENE CARBOXAMIDE DERIVATIVES, METHODS FOR PREPARING SAME AND THERAPEUTIC APPLICATIONS OF SAME” (priority 2006, published 2010).

The structures appear in SMILES notation. Structures can show the parent of a compound that is named as a salt.

`O=C(NCCCCN1CCN(c2cccc(Cl)c2Cl)CC1)C1=Cc2cc(Cl)ccc2OC1` (as salt: hydrochloride) [Example 28, 6-Chloro-2H-Chromene-3-carboxylic acid {4-[4-(2,3-dichlorophenyl)-piperazin-1-yl]-butyl}-amide] returned a melting point of 214 °C.
As for `COc1ccc(Br)c2c1OCC(C(=O)NCCCCN1CCN(c3cccc(C#N)c3)CC1)=C2` (as salt: HCl) [Example 52, 5-Bromo-8-methoxy-2H-chromene-3-carboxylic acid {4-[4-(3-cyanophenyl)piperazin-1-yl]-butyl}-amide], the figure is 155 °C.
In turn, `COc1ccccc1N1CCN(CCCCNC(=O)C2=Cc3ccccc3OC2)CC1` (as salt: hydrochloride) [Example 1, 2H-Chromene 3-carboxylic acid {4-[4-(2-methoxyphenyl)-piperazin-1-yl]-butyl}-amide] had a melting point of 224 °C.
To `O=C(NCCCCN1CCN(c2ccc(Cl)cc2)CC1)C1=Cc2ccccc2OC1` (as salt: HCl) [Example 5, 2H-Chromene-3-carboxylic acid {4-[4-(4-chlorophenyl)-piperazin-1-yl]-butyl}-amide] belongs 236 °C; to `N#Cc1cccc(N2CCN(CCCCNC(=O)C3=Cc4ccccc4SC3)CC2)c1` (as salt: HCl) [Example 35, 2H-Thiochromene-3-carboxylic acid {4-[4-(3-cyanophenyl)-piperazin-1-yl]-butyl}-amide], 209 °C.
`COc1ccc(Br)c2c1OCC(C(=O)NCCCCN1CCN(c3cccc(Cl)c3Cl)CC1)=C2` (as salt: HCl) [Example 51, 5-Bromo 8 methoxy-2H-chromene-3-carboxylic acid {4-[4-(2,3-dichlorophenyl)-piperazin-1-yl]-butyl}-amide] showed a melting point of 205 °C.
To `Cc1cccc(N2CCN(CCCCNC(=O)C3=Cc4ccccc4OC3)CC2)c1C` (as salt: HCl) [Example 11, 2H-Chromene-3-carboxylic acid {4-[4-(2,3-dimethylphenyl)piperazin-1-yl]-butyl}-amide] belongs 202 °C.
`O=C(NCCCCN1CCN(c2ccccc2)CC1)C1=Cc2ccccc2OC1` (as salt: HCl) [Example 4, 2H-Chromene-3-carboxylic acid {4-(4-phenylpiperazin-1-yl)-butyl}-amide] had a melting point of 239 °C.
To `COc1cc(OC)cc(N2CCN(CCCCNC(=O)C3=Cc4ccccc4OC3)CC2)c1` (as salt: hydrochloride) [Example 23, 2H-Chromene 3 carboxylic acid {4-[4-(3,5-dimethoxyphenyl)piperazin-1-yl]-butyl}-amide hydrochloride] belongs 213 °C; to `O=C(NCCCCN1CCN(c2ccccc2F)CC1)C1=Cc2ccccc2SC1` (as salt: HCl) [Example 33, 2H-Thiochromene-3-carboxylic acid {4-[4-(2-fluorophenyl)piperazin-1-yl]-butyl}-amide], 212 °C.
As for `O=C(NCCCCN1CCN(c2ccc(F)cc2)CC1)C1=Cc2ccccc2OC1` (as salt: HCl) [Example 8, 2H Chromene-3-carboxylic acid {4-[4-(4 fluorophenyl)-piperazin-1-yl]-butyl}-amide], the figure is 243 °C.
To `CCOC(=O)c1cccc(N2CCN(CCCCNC(=O)C3=Cc4ccccc4OC3)CC2)c1` (as salt: hydrochloride) [Example 21, 3-(4-{4-[(2H-Chromene-3-carbonyl)-amino]-butyl}-piperazin-1-yl)-benzoic acid ethyl ester hydrochloride] belongs 229 °C.
`COc1ccccc1N1CCN(CCCCNC(=O)C2=Cc3cc(Cl)ccc3OC2)CC1` (as salt: HCl) [Example 29, 6-Chloro-2H-chromene-3-carboxylic acid {4-[4-(2-methoxyphenyl)-piperazin-1-yl]-butyl}-amide] yielded a melting point of 155 °C.
To `N#Cc1cccc(N2CCN(CCCCNC(=O)C3=Cc4cc(Cl)ccc4OC3)CC2)c1` (as salt: HCl) [Example 31, 6-Chloro-2H-chromene-3-carboxylic acid {4-[4-(3-cyanophenyl)-piperazin-1-yl]-butyl}-amide] belongs 120 °C (dec.); to `CCOC(=O)c1ccc(N2CCN(CCCCNC(=O)C3=Cc4ccccc4OC3)CC2)cc1` (as salt: hydrochloride) [Example 22, 4-(4-{4-[(2H-Chromene-3-carbonyl)-amino]-butyl}-piperazin-1-yl)-benzoic acid ethyl ester hydrochloride], 237 °C; to `O=C(NCCCCN1CCN(c2cccc(Cl)c2)CC1)C1=Cc2ccccc2OC1` (as salt: HCl) [Example 6, 2H-Chromene-3-carboxylic acid {4-[4-(3 chlorophenyl)-piperazin-1-yl]-butyl}-amide], 216 °C.
In turn, `O=C(NCCCCN1CCN(c2ccc([N+](=O)[O-])cc2)CC1)C1=Cc2ccccc2OC1` (as salt: HCl) [Example 18, 2H-Chromene 3 carboxylic acid {4-[4-(4-nitrophenyl)-piperazin-1-yl]-butyl}-amide] gave a melting point of 243 °C.
Consider `Cc1ccccc1N1CCN(CCCCNC(=O)C2=Cc3ccccc3OC2)CC1` (as salt: HCl) [Example 9, 2H Chromene-3-carboxylic acid {4-[4-(2-methylphenyl)-piperazin-1-yl]-butyl}-amide], for which the melting point was 187 °C.
`O=C(NCCCCN1CCN(c2cccc(Cl)c2Cl)CC1)C1=Cc2ccccc2SC1` (as salt: HCl) [Example 32, 2H-thiochromene-3-carboxylic acid {4-[4-(2,3-dichlorophenyl)piperazin-1-yl]-butyl}-amide] displayed a melting point of 215 °C.
To `COc1ccc2c(c1)C=C(C(=O)NCCCCN1CCN(c3cccc(Cl)c3Cl)CC1)CO2` (as salt: HCl) [Example 55, 6-Methoxy-2H-chromene-3-carboxylic acid {4-[4-(2,3-dichlorophenyl)-piperazin-1-yl]-butyl}-amide] belongs 205 °C.
As for `O=C(NCCCCN1CCN(c2ccc(C(F)(F)F)cc2)CC1)C1=Cc2ccccc2OC1` (as salt: HCl) [Example 15, 2-H-Chromene-3-carboxylic acid {4-[4-(4-trifluoromethylphenyl)-piperazin-1-yl]-butyl}-amide], the melting point is 261.9 °C.
Regarding `N#Cc1cccc(N2CCN(CCCCNC(=O)C3=Cc4ccccc4OC3)CC2)c1` (as salt: hydrochloride) [Example 14, 2H-Chromene-3-carboxylic acid {4-[4-(3-cyanophenyl)-piperazin-1-yl]-1-butyl}-amide], the melting point was found to be 229 °C.
In the case of `O=C(NCCCCN1CCN(c2cccc(CO)c2)CC1)C1=Cc2ccccc2OC1` (as salt: HCl) [Example 46, 2H-chromene-3-carboxylic acid {4-[4-(3-hydroxymethylphenyl)-piperazin-1-yl]-butyl}-amide], the melting point is 194 °C.
To `COc1ccc(Br)c2c1OCC(C(=O)NCCCCN1CCN(c3ccccc3F)CC1)=C2` (as salt: hydrochloride) [Example 49, 5-Bromo-8-methoxy-2H-chromene-3-carboxylic acid {4-[4 (2-fluorophenyl)-piperazin-1-yl]-butyl}-amide hydrochloride] belongs 157 °C.

By melting point is commonly meant the temperature, or range, at which the solid turns liquid.
